Results taken from paper PMC9699003, “Arene Variation of Highly Cytotoxic Tridentate Naphthoquinone-Based Ruthenium(II) Complexes and In-Depth In Vitro Studies” (Pharmaceutics, 2022).

Tests used:
[1] = tested on: pUC19 plasmid; assay: DNA interaction assay (dsDNA plasmid, agarose gel electrophoresis); type: biochemical; conditions: 50 µM; for open circular (oc) form of pUC19 (single-strand breaks): 37 °C, after 6 h of incubation, control after 6 h 3.6 ± 0.7%
Method: The incubation was performed at 37 °C for different time intervals (15 min to 6 h) with continuous shaking. Additionally, 4 µL aliquots of a 6× DNA loading dye (Thermo Fisher) were added to the 20 µL reaction solution, and the DNA samples were separated in a 1% agarose gel in 1 × Tris-Borate-EDTA (TBE) buffer. Electrophoresis was initiated at 60 V for 5 min and continued at 120 V for 90 min in 1 × TBE buffer. For visualization of the DNA modification degree, the agarose gel was stained with ethidium bromide (EtBr) in 1 × TBE (0.75 µg/mL) for 20 min.

[2] = tested on: SW480 cells; assay: Cellular ruthenium accumulation (ICP-MS); type: cell-based, human; conditions: SW480, 2 h incubation, 37 °C
Method: SW480 cells were seeded at densities of 1.8 × 10^5 cells/well in 12-well plates (CytoOne, tissue culture treated) in 1 mL of supplemented MEM per well. (As CH1/PA-1 cells tend to detach during the required washing steps, cellular accumulation studies were performed only in SW480 cells). After 24 h, compounds dissolved in DMSO and diluted in MEM were added to the cells to final concentrations of 2 µM and 5 µM, and cells were incubated at 37 °C for 2 h. During incubation, the cell number was determined from three control wells of a plate seeded in parallel to the treatment plates. After the 2 h incubation, the medium was removed and all wells were washed with 3 × 1 mL PBS, and cells were lysed by adding 400 µL HNO3 per well for 1 h at room temperature. An amount of 300 µL of each lysate was added to 7.7 mL MilliQ water to get a total volume of 8 mL, and determination of the ruthenium content was carried out by ICP-MS. The measured amount of accumulated metal was normalized to the cell number and results were given in fg [Ru]/cell from at least three independent experiments. An Agilent 7800 ICP-MS instrument (Agilent Technologies, Tokyo, Japan) equipped with an Agilent SPS 4 autosampler (Agilent Technologies, Tokyo, Japan) was used to determine the ruthenium content. The ICP-MS parameters were tuned on a daily base to achieve high sensitivity. The ICP-MS was equipped with a MicroMist nebulizer with a sample uptake rate of ∼0.2 mL/min and standard nickel cones. The Agilent MassHunter software package (Workstation Software, Version C.01.04, 2018) was used for data evaluation. The instrumental parameters can be found in the supplementary information (Table S9).

[3] = tested on: SW480 cells; assay: Apoptosis assay (annexin V-FITC/PI, flow cytometry); conditions: SW480, 24 h; for early apoptotic cells / late apoptotic cells / necrotic cells / viable cells: mean ± SD; for Apoptosis / necrosis induction (in words): concentrations covering the IC50 range
Method: Cell death induction was quantitatively analyzed via flow cytometry using double staining with FITC-conjugated annexin V (eBioscience, San Diego, CA, USA) and propidium iodide (PI, 1.0 mg/mL, Sigma-Aldrich). SW480 cells were seeded into 24-well plates (7 × 10^4 cells/well) in 600 µL MEM per well and allowed to settle for 24 h. Afterward, cells were exposed to two or three different concentrations (0.1–100 µM) of the compounds (based on their cytotoxic activity) for 24 h. After treatment, the medium was collected, and cells were washed once with 37 °C warm PBS and harvested. Following trypsinization, the cell suspension was added to the pre-collected medium and cells were centrifuged (300 g, 3 min). The supernatant was removed, and the cell pellet was resuspended with 1.5 µL FITC-conjugated annexin V in 150 µL binding buffer (10 mM HEPES/NaOH pH 7.4, 140 mM NaCl and 2.5 mM CaCl2) and incubated at 37 °C for 15 min. An amount of 1 µL of propidium iodide (PI, Thermo Fisher) was added shortly before flow-cytometric analysis using a Guava easyCyte 8HT instrument (Merck Millipore, Burlington, MA, USA) with InCyte software. Results were quantified by using the FlowJo software (TreeStar). At least three independent experiments were conducted.

[4] = tested on: SW480 cells; assay: Colony formation assay; type: cell-based, human; conditions: SW480, 11 days, relative to untreated control
Method: For the colony formation assay, SW480 cells were seeded at a density of 350 cells/2 mL into each well of 6-well plates (CytoOne, tissue culture treated) and left to adhere for 24 h. To determine the long-term effects of the test compounds, the cells were exposed to them for 11 days at 37 °C and 5% CO2. After incubation, the wells were gently washed with 1 mL cold PBS and the colonies were fixed with 1 mL cold (4 °C) 100% methanol (Thermo Fisher, Waltham, MA, USA) for 30 min at 4 °C and washed with 1 mL PBS again. The fixed colonies were stained with 1 mL of 0.5% w/v crystal violet (Sigma-Aldrich) in methanol for 2 min and the plates were washed under tap water. After drying the plates, images of the wells were captured, and colonies were counted with the colony counting function of Fusion Fx7 software (Vilber Lourmat, Collégien, France). Results were normalized to untreated controls. Data are averaged from at least three independent experiments.

[5] = target: T1, NQO1 (SW480 cells) (Homo sapiens, UniProt P15559); assay: NQO1 activity assay in cell extracts after treatment; type: cell-based; conditions: SW480, 24 h treatment
T1 construct: impact on NQO1 activity in SW480 (left panel) and CH1/PA-1 (right panel) cell extracts after treatment; endogenous in cells; host or cells: SW480 colon carcinoma cells (ATCC)
Method: To determine NQO1 activity, SW480 and CH1/PA-1 cells were seeded into 6-well plates in densities of 2 × 10^5 cells/well in 2 mL supplemented MEM. […] The test substances were dissolved in DMSO/medium. To exclude that assay validity was compromised by the use of DMSO, cells treated with DMSO alone (at concentrations corresponding to those in substance solutions) were measured in parallel. After 24 h drug exposure, the medium was aspirated, and the cells were gently washed twice with PBS. The further steps were performed following the manual instructions of the NQO1 activity assay kit (ab184867, abcam, Cambridge, UK). Protease inhibitor phenylmethylsulfonyl fluoride (PMSF, Merck, Darmstadt, Germany) and phosphatase inhibitor PhosSTOP^TM (Roche, Basel, Switzerland) were applied. For determining the protein concentration, the Micro BCA^TM protein assay (prod # 23235, Thermo Scientific) kit was used. For NQO1 activity determination, 100 µg/mL of total protein was loaded. The development of yellow color was monitored for 5 min in 20-sec intervals with a microplate reader (BioTek ELx808) at 450 nm. The measured data were evaluated according to the instructions of the NQO1 activity assay kit: “NQO1 activity was calculated by subtracting the OD value with Inhibitor from the one without Inhibitor. The activity is expressed as the change in absorbance per minute per amount of sample loaded into the well” [30]. Data are expressed as rates of increase of mean absorbance ± SDs from three independent experiments.

[6] = tested on: CH1/PA-1 ovarian teratocarcinoma cells; conditions: CH1/PA-1, MTT, 96 h exposure; cited from earlier work
[7] = HPLC-MS stability measurements in PBS; conditions: PBS pH 7.4, 20 °C, 40 µM, after 24 h
Method: 4 µL of stock solution was mixed with 990 µL of PBS buffer (pH 7.4) and 6 µL DMSO to obtain a final concentration of 40 µM. After injection, the chromatogram at 225 nm and the corresponding mass spectra (positive mode) were recorded hourly (4 h) and after 24 h at 20 °C. Peak areas were determined by integrating complex signals of the respective chromatogram. The measurements were performed with an HPLC system (Agilent Technologies, […]) equipped with a C18 column (Waters, Atlantis T3 […], 1.0 × 150 mm^2) coupled to an MS (Bruker, amaZon SL, ESI, positive mode) with a flow rate of 0.2 mL/min at 20 °C and a gradient (5–95%) with Milli-Q water/ACN.

[8] = 0.1 µM and 1 µM, compared to untreated control
[9] = Homo sapiens, read-out: viable cells

T1 sequence (P15559 whole entry): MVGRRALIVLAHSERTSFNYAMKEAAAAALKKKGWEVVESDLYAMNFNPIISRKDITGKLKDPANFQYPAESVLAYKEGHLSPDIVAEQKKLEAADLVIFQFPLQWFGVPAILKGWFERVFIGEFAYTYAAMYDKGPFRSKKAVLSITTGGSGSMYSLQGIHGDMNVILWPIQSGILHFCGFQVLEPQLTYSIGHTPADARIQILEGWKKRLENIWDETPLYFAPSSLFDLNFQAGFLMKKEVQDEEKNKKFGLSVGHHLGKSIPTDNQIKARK

Row | Structure (SMILES) | open circular (oc) form of pUC19 (single-strand breaks) [1] | Ru [102]/cell (cellular accumulation) ([2]; 2 µM) | Ru [102]/cell (cellular accumulation) ([2]; 5 µM) | early apoptotic cells ([3]; 1 µM) | late apoptotic cells ([3]; 1 µM) | necrotic cells ([3]; 1 µM) | viable cells ([3]; 1 µM) | early apoptotic cells ([3]; 10 µM) | late apoptotic cells ([3]; 10 µM) | necrotic cells ([3]; 10 µM) | viable cells ([3]; 10 µM) | Number of colonies ([4]; 1.25 µM) | Number of colonies ([4]; 5 µM) | Effect on NQO1 activity (in words) [5, 8] | Effect on NQO1 activity (in words) ([5]; 10 µM) | early apoptotic cells ([3]; 0.1 µM) | late apoptotic cells ([3]; 0.1 µM) | necrotic cells ([3]; 0.1 µM) | viable cells ([3]; 0.1 µM) | Apoptosis / necrosis induction (in words) [3] | further results
1 | CC1=C([O-])C([O-])(n2cccn2)c2ccccc2C1=O.Cc1ccccc1.[Ru+2] (racemic) [Compound 3] | 11.7 ± 1.6% | 15 ± 2 fg | 33 ± 10 fg | 1.0 ± 0.7% | 2.1 ± 0.3% | 1.0 ± 0.5% | 96 ± 1% | 0.7 ± 0.3% | 2.1 ± 0.7% | 0.72 ± 0.49% | 97 ± 1% | 53 ± 8% | 4.3 ± 3.7% | – | – | – | – | – | – | – | Number of colonies ([4]; 2.5 µM): 23 ± 8%
2 | CC1=C([O-])C([O-])(n2cccn2)c2ccccc2C1=O.Cc1ccc(C(C)C)cc1.[Ru+2] (racemic) [Compound 1] | – | 97 ± 8 fg | 299 ± 54 fg | 1.3 ± 0.5% | 4.9 ± 2.8% | 1.2 ± 0.8% | 93 ± 4% | 16 ± 1% | 64 ± 6% | 6.7 ± 3.1% | 13 ± 3% | – | – | negligible effects | lowered NQO1 activity tremendously | 3.7 ± 3.1% | 3.6 ± 2.6% | 0.77 ± 0.33% | 92 ± 6% | induced apoptosis to a high extent | Number of colonies ([4]; 0.039 µM): 18 ± 5%; Number of colonies ([4]; 0.078 µM): 3.1 ± 0.8%; Number of colonies ([4]; 0.16 µM): 0.26 ± 0.43%; IC50 [6]: > 50 µM; Percentage amount of initial complex remaining [7]: more than 70%
3 | CC1=C([O-])C([O-])(n2cccn2)c2ccccc2C1=O.[Ru+2].c1ccccc1 (racemic) [Compound 2] | 11.8 ± 0.9% | 4.5 ± 0.3 fg | 11 ± 2 fg | 1.1 ± 0.4% | 2.0 ± 0.2% | 1.4 ± 0.8% | 95 ± 1% | 1.0 ± 0.3% | 2.0 ± 0.3% | 1.5 ± 0.8% | 96 ± 1% | – | 48 ± 9% | – | – | – | – | – | – | – | Number of colonies ([4]; 10 µM): 20 ± 4%; Number of colonies ([4]; 20 µM): 3.5 ± 1.5%
4 | CC1=C([O-])C([O-])(n2cccn2)c2ccccc2C1=O.[Ru+2].c1ccc2c(c1)CCC2 (racemic) [Compound 4] | 12.1 ± 1.9% | 44 ± 3 fg | 100 ± 15 fg | 1.1 ± 0.7% | 2.4 ± 1.2% | 0.93 ± 0.65% | 96 ± 2% | 1.0 ± 0.4% | 8.3 ± 4.9% | 3.4 ± 4.0% | 87 ± 8% | 0.82 ± 0.85% | – | – | moderate suppression of enzyme activity | 1.1 ± 0.5% | 2.1 ± 0.4% | 1.7 ± 1.1% | 95 ± 2% | – | Number of colonies ([4]; 0.31 µM): 22 ± 5%; Number of colonies ([4]; 0.63 µM): 5.1 ± 2.1%
5 | CC1=C(O)C(=O)c2ccccc2C1=O [L, 2-Hydroxy-3-methyl-1,4-naphthoquinone] | – | – | – | – | – | – | – | 1.0 ± 0.5% | 1.6 ± 0.2% | 0.61 ± 0.44% | – | – | – | – | moderately inhibited | – | – | – | – | did not induce any of these processes | viability at 10 µM [3, 9]: 97 ± 1%; viability at 100 µM [3, 9]: 96%; early apoptotic cells ([3]; 100 µM): 1.0 ± 0.2%; late apoptotic cells ([3]; 100 µM): 1.9 ± 0.2%; necrotic cells ([3]; 100 µM): 0.86 ± 0.33%; Number of colonies ([4]; 50 µM): 62 ± 25%; Number of colonies ([4]; 150 µM): 0 ± 0%; IC50 [6]: 129 ± 29 µM
6 | CC1=C([O-])C([O-])(n2cccn2)c2ccccc2C1=O.[Ru+2].c1ccc(-c2ccccc2)cc1 (racemic) [Compound 5] | – | 107 ± 14 fg | 336 ± 10 fg | 1.0 ± 0.5% | 3.3 ± 1.3% | 0.85 ± 0.48% | 95 ± 2% | 25 ± 7% | 40 ± 6% | 6.3 ± 2.2% | 29 ± 11% | – | – | negligible effects | lowered NQO1 activity tremendously | 3.0 ± 2.2% | 2.9 ± 1.5% | 1.0 ± 0.5% | 93 ± 4% | induced apoptosis to a high extent | Influence on pUC19 (in words) ([1]; up to 6 h): only a minor influence on pUC19; Number of colonies ([4]; 0.039 µM): 19 ± 7%; Number of colonies ([4]; 0.078 µM): 4.0 ± 2.0%; Number of colonies ([4]; 0.16 µM): 0.22 ± 0.48%
